Patent US9682960B2 (priority 2013, dated 2017)
Read-outs that look alike come from different tables or passages of the source.

Experiments:
[1] = target: Human Androgen Receptor (Homo sapiens (Human), UniProt P10275); test: Androgen receptor assay: [3H]R1881 displacement, cytosol of HEK-293 cells transfected with hAR (hydroxylapatite assay); format: binding; details: for Human Androgen Receptor Binding RBA (%) R1881 = 100: relative binding affinity; for times more potent than OH-flutamide on the human AR (RBA ratio): versus hydroxyflutamide
Human Androgen Receptor, sequence (P10275 whole entry): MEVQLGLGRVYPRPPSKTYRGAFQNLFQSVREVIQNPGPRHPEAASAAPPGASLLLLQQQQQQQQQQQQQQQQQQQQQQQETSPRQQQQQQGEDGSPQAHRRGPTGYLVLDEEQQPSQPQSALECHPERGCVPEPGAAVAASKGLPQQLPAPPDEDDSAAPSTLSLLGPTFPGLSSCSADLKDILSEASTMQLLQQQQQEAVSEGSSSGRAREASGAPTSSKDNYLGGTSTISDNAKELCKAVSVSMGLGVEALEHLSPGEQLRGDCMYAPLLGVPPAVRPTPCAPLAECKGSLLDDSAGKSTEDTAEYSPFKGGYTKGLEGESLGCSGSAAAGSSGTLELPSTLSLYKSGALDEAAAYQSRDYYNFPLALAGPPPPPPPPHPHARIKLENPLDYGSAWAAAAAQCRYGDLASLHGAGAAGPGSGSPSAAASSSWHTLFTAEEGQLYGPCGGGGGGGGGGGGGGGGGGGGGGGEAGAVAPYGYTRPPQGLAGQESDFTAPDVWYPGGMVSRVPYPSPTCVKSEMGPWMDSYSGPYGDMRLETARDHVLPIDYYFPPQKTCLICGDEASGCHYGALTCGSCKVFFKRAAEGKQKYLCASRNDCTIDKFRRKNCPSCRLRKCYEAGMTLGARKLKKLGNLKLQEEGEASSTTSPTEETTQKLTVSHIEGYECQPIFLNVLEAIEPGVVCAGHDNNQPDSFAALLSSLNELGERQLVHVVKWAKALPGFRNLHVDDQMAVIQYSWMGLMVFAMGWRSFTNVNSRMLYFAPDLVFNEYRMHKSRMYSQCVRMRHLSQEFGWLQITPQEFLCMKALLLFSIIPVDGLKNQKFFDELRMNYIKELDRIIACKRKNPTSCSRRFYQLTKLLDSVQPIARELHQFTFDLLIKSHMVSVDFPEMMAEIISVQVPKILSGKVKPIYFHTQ

[2] = system: Shionogi mouse mammary carcinoma cells; test: In vitro androgenic/antiandrogenic activity: proliferation of Shionogi cells with or without DHT; format: cell-based; details: for IC50: Mus musculus; for fold more potent than OH-flutamide in reversing DHT-stimulated Shionogi cell proliferation: versus hydroxyflutamide
[3] = read-out: Shionogi Antiandrogenic Activity IC50, DHT (0.3 nM)-stimulated cell number

Compound | Human Androgen Receptor Binding RBA (%) R1881 = 100 ([1]; transfected cells) [%] | IC50 [2, 3] [nM] | Human Androgen Receptor Binding RBA (%) R1881 = 100 ([1]; […]) [%] | times more potent than OH-flutamide on the human AR (RBA ratio) [1] [times] | fold more potent than OH-flutamide in reversing DHT-stimulated Shionogi cell proliferation [2] [fold] | IC50 ([2]; DHT (0.3 nM)-stimulated cell number, read-out: Shionogi Antiandrogenic Activity IC50) [nM]
CC1(C)C(=O)N(c2ccc(C#N)c(C(F)(F)F)c2)C(=O)N1CCOc1ccc(-c2cc[n+]([O-])cc2)cc1 [EM-9180] | 1.7 | 24 | – | – | – | –
CC1(C)C(=O)N(c2ccc(C#N)c(Cl)c2)C(=O)N1CCCOc1ccc(-c2ccncc2)cc1F [EM-9198] | – | 5.3 | 22 | 105 | 6.4 | –
CC1(C)C(=O)N(c2ccc(C#N)c(C(F)(F)F)c2)C(=O)N1Cc1ccc(-c2ccncc2)cc1 [EM-9199] | 2.3 | 27 | – | – | – | –
CC1(C)C(=O)N(c2ccc(C#N)c(C(F)(F)F)c2)C(=O)N1Cc1ccc(-c2cccnc2)cc1 [EM-9200] | 2.5 | 66 | – | – | – | –
N#Cc1ccc(N2C(=O)N(CCCOc3ccc(-c4ccncc4)c(F)c3)C3(CCCC3)C2=O)cc1Cl [EM-9201] | – | 9.7 | 70.8 | – | – | –
Cc1c(N2C(=O)N(CCCOc3ccc(-c4ccncc4)c(F)c3)C(C)(C)C2=O)ccc(C#N)c1F [EM-9205] | 17.9 | 14.8 | – | 85 | 2.3 | –
Cc1cc(OCCCN2C(=O)N(c3ccc(C#N)c(Cl)c3)C(=O)C2(C)C)ccc1-c1cc[n+]([O-])cc1 [EM-9221] | – | 10.6 | 2.7 | – | – | –
CC1(C)C(=O)N(c2ccc(C#N)c(Cl)c2)C(=O)N1CCCOc1ccc(-c2cc[n+]([O-])cc2)cc1F [EM-9226] | – | 23 | 2.4 | – | – | –
CC1(C)C(=O)N(c2ccc(C#N)c(C(F)(F)F)c2)C(=O)N1Cc1ccc(-c2ccncc2)c(F)c1 [EM-9227] | – | 16.4 | 4.9 | – | – | –
CC1(C)C(=O)N(c2ccc(C#N)c(C(F)(F)F)c2)C(=O)N1Cc1ccc(-c2cc[n+]([O-])cc2)c(F)c1 [EM-9228] | – | 53 | 0.4 | – | – | –
COc1cc(-c2ccncc2)ccc1OCCCN1C(=O)N(c2ccc(C#N)c(Cl)c2)C(=O)C1(C)C [EM-9261] | – | 27 | 2.5 | – | – | –
CC1(C)C(=O)N(c2ccc(C#N)c(Cl)c2)C(=O)N1CCCOc1ccc(-c2ccncc2F)cc1 [EM-9267] | 5.5 | 16 | – | – | – | –
CC1(C)C(=O)N(c2ccc(C#N)c(C(F)(F)F)c2)C(=O)N1c1ccc(-c2ccncc2)cc1 [EM-9340] | 0.2 | – | – | – | – | 126
Cc1c(N2C(=O)N(c3ccc(-c4cccnc4)cc3)C(C)(C)C2=O)ccc(C#N)c1C(F)(F)F [EM-9342] | 0.4 | 66 | – | – | – | –
Cc1c(N2C(=O)N(Cc3ccc(-c4ccncc4)cc3)C(C)(C)C2=O)ccc(C#N)c1Cl [EM-9343] | – | 21 | 6.1 | – | – | –
Cc1c(N2C(=O)N(c3ccc(-c4ccncc4)cc3)C(C)(C)C2=O)ccc(C#N)c1C(F)(F)F [EM-9344] | – | 51 | 0.8 | – | – | –
Cc1c(N2C(=O)N(Cc3ccc(-c4cc[n+]([O-])cc4)cc3)C(C)(C)C2=O)ccc(C#N)c1Cl [EM-9345] | 0.5 | ~80 | – | – | – | –
